Test results taken from patent US7728012B2, “Carboxamide compounds and their use as calpain inhibitors” (Abbott GmbH & Co. KG, priority 2006, dated 2010).

Experiments:
Type in all cases: biochemical
[1] = molecular target: T1, calpain-I isolated from human erythrocytes (Homo sapiens, UniProt P07384); test: Calpain I kinetic fluorescence enzyme inhibition assay; settings: apparent Ki from IC50 by Cheng-Prussoff; average of 2 to 4 dose-effect plots
T1 construct: calpain-I—isolated from human erythrocytes; purchased Calbiochem 208713; host or cells: human erythrocytes (tissue isolate)
T1 sequence (P07384 1-714): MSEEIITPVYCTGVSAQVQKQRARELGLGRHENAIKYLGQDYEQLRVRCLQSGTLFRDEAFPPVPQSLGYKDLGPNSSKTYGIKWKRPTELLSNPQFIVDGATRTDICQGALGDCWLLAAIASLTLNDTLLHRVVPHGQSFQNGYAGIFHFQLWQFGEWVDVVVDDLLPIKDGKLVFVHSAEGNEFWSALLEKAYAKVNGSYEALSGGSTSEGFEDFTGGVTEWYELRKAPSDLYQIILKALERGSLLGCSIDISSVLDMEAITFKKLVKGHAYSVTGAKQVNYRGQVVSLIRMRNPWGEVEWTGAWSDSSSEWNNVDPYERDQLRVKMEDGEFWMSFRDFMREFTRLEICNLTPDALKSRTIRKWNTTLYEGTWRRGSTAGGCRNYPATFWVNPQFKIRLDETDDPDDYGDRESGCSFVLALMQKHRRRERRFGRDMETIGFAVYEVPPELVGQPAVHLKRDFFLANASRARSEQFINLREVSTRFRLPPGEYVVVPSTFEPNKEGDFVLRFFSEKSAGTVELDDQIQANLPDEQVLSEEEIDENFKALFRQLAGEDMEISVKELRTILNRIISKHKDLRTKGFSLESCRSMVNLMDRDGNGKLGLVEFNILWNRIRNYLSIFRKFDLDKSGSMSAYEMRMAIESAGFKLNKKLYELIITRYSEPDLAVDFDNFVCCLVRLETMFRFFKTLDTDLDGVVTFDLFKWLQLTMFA
T1 sequence (P04632 1-268 partner): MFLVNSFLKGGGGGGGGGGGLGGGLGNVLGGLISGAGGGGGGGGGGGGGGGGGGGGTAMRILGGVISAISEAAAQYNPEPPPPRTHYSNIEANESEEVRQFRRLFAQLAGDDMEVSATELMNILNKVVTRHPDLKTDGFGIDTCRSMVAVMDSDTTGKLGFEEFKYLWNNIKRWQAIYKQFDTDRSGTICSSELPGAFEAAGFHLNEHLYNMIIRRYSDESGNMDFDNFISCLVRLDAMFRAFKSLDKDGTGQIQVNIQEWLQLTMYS

[2] = molecular target: T2, cathepsin L isolated from human liver (Homo sapiens, UniProt P07711); test: Cathepsin L kinetic fluorescence enzyme inhibition assay; settings: selectivity ratio versus calpain I
T2 construct: cathepsin L—isolated from human liver; purchased Calbiochem 219402; host or cells: human liver (tissue isolate)
In short: (§1)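 Kinetic fluorescence (ex 390/em 460 nm) at room temperature in 50 mM MES, 2 mM EDTA, 0.05% Brij 35, 2.5 mM L-cysteine, pH 6.0. Cathepsin B (liver, 0.25 nM) with 100 μM Z-Phe-Arg-AMC; cathepsin L (liver, 1 nM) with 2 μM Z-Phe-Arg-AMC; recombinant E. coli cathepsin S (0.5 nM) with 20 μM Z-Val-Val-Arg-AMC. Ki via Cheng-Prusoff.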

[3] = molecular target: T3, cathepsin B isolated from human liver (Homo sapiens, UniProt P07858); test: Cathepsin B kinetic fluorescence enzyme inhibition assay; settings: selectivity ratio versus calpain I
T3 construct: cathepsin B—isolated from human liver; purchased Calbiochem 219362; host or cells: human liver (tissue isolate)
In short: as §1

[4] = molecular target: T4, cathepsin K activated from recombinant human procathepsin K (Homo sapiens, UniProt P43235); test: Cathepsin K kinetic fluorescence enzyme inhibition assay; settings: selectivity ratio versus calpain I
T4 construct: purchased Calbiochem 342001; host or cells: E. coli
T4 sequence (P43235 115-329): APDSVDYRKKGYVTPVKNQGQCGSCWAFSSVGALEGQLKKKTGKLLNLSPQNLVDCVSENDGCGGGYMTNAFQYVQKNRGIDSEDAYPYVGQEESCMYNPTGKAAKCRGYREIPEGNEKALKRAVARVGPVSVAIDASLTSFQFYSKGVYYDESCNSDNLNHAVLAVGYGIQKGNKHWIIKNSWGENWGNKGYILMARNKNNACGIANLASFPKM

[5] = molecular target: T5, recombinant human cathepsin S (Homo sapiens, UniProt P25774); test: Cathepsin S kinetic fluorescence enzyme inhibition assay; settings: selectivity ratio versus calpain I
T5 construct: purchased Calbiochem 219343; host or cells: E. coli
In short: as §1

T5 sequence (P25774 115-331): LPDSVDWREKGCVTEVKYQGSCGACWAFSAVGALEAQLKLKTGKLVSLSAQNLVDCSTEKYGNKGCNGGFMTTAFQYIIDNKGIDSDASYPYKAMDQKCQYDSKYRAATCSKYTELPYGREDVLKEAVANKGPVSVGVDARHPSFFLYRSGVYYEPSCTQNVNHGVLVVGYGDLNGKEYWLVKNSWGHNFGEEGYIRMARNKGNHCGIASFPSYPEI
T2 sequence (P07711 114-333): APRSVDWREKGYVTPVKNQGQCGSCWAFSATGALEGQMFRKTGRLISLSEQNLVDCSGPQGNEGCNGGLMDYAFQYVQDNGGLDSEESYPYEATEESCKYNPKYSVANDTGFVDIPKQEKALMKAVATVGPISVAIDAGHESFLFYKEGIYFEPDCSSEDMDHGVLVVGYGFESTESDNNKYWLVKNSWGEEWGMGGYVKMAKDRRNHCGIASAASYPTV

| SMILES | Ki [1] [nM] | Sel cat. L (Ki(cathepsin L)/Ki(calpain) ratio) [2] | Sel cat. B (Ki(cathepsin B)/Ki(calpain) ratio) [3] | Sel cat. K (Ki(cathepsin K)/Ki(calpain) ratio) [4] | Sel cat. S (Ki(cathepsin S)/Ki(calpain) ratio) [5] |
| --- | --- | --- | --- | --- | --- |
| CS(=O)(=O)Nc1cnc(-n2ccc(-c3ccccc3)n2)c(C(=O)NC(Cc2ccccc2)C(=O)C(N)=O)c1 (stereo not shown) [Example 158, N-[3-Amino-2,3-dioxo-1-(phenylmethyl)propyl]-5-[(methylsulfonyl)amino]-2-(3-phenyl-1H-pyrazol-1-yl)pyridine-3-carboxamide] | 40 to 100 | ++ (Ki(cathepsin L)/Ki(calpain) ratio of ≧50) | ++ (Ki(cathepsin B)/Ki(calpain) ratio of ≧30) | ++ (Ki(cathepsin K)/Ki(calpain) ratio of ≧30) | ++ (Ki(cathepsin S)/Ki(calpain) ratio of ≧100) |
| NC(=O)C(=O)C(Cc1ccccc1)NC(=O)c1cccnc1-n1ccc(-c2cccc3cccnc23)n1 (stereo not shown) [Example 160, N-[3-amino-2,3-dioxo-1-(phenylmethyl)propyl]-2-(3-quinolin-8-yl-1H-pyrazol-1-yl)pyridine-3-carboxamide] | 40 to 100 | ++ (Ki(cathepsin L)/Ki(calpain) ratio of ≧50) | ++ (Ki(cathepsin B)/Ki(calpain) ratio of ≧30) | ++ (Ki(cathepsin K)/Ki(calpain) ratio of ≧30) | ++ (Ki(cathepsin S)/Ki(calpain) ratio of ≧100) |
| NC(=O)C(=O)C(Cc1cccc(F)c1)NC(=O)c1cccnc1-n1ccc(-c2ccccc2OC(F)(F)F)n1 (stereo not shown) [Example 162, N-{3-Amino-1-[(3-fluorophenyl)methyl]-2,3-dioxopropyl}-2-(3-{2-[(trifluoromethyl)oxy]phenyl}-1H-pyrazol-1-yl)pyridine-3-carboxamide] | 40 to 100 | ++ (Ki(cathepsin L)/Ki(calpain) ratio of ≧50) | ++ (Ki(cathepsin B)/Ki(calpain) ratio of ≧30) | ++ (Ki(cathepsin K)/Ki(calpain) ratio of ≧30) | ++ (Ki(cathepsin S)/Ki(calpain) ratio of ≧100) |
| NC(=O)C(=O)C(Cc1ccccc1)NC(=O)c1cccnc1-n1ccc(-c2cc(C(F)(F)F)ccc2CN2CCOCC2)n1 (stereo not shown) [Example 163, N-[3-Amino-2,3-dioxo-1-(phenylmethyl)propyl]-2-{3-[2-(morpholin-4-ylmethyl)-5-(trifluoromethyl)phenyl]-1H-pyrazol-1-yl}pyridine-3-carboxamide] | 40 to 100 | + (30≦Ki(cathepsin L)/Ki(calpain)<50) | + (10≦Ki(cathepsin B)/Ki(calpain)<30) | + (10≦Ki(cathepsin K)/Ki(calpain)<30) | ++ (Ki(cathepsin S)/Ki(calpain) ratio of ≧100) |
| NC(=O)C(=O)C(Cc1ccccc1)NC(=O)c1cccnc1-n1ccc(-c2cccc3c2OCC3)n1 (stereo not shown) [Example 164, N-[3-Amino-2,3-dioxo-1-(phenylmethyl)propyl]-2-[3-(2,3-dihydro-1-benzofuran-7-yl)-1H-pyrazol-1-yl]pyridine-3-carboxamide] | ≤ 40 | ++ (Ki(cathepsin L)/Ki(calpain) ratio of ≧50) | + (10≦Ki(cathepsin B)/Ki(calpain)<30) | ++ (Ki(cathepsin K)/Ki(calpain) ratio of ≧30) | ++ (Ki(cathepsin S)/Ki(calpain) ratio of ≧100) |
| NC(=O)C(=O)C(Cc1ccccc1)NC(=O)c1cccnc1-n1ccc(-c2ccccc2OC(F)F)n1 (stereo not shown) [Example 166, N-[3-Amino-2,3-dioxo-1-(phenylmethyl)propyl]-2-(3-{2-[(difluoromethyl)oxy]phenyl}-1H-pyrazol-1-yl)pyridine-3-carboxamide] | ≤ 40 | ++ (Ki(cathepsin L)/Ki(calpain) ratio of ≧50) | + (10≦Ki(cathepsin B)/Ki(calpain)<30) | ++ (Ki(cathepsin K)/Ki(calpain) ratio of ≧30) | ++ (Ki(cathepsin S)/Ki(calpain) ratio of ≧100) |
| NC(=O)C(=O)C(Cc1ccccc1)NC(=O)c1cccnc1-n1ccc(-c2cccc(OC(F)(F)F)c2)n1 (stereo not shown) [Example 168, N-[3-Amino-2,3-dioxo-1-(phenylmethyl)propyl]-2-(3-{3-[(trifluoromethyl)oxy]phenyl}-1H-pyrazol-1-yl)pyridine-3-carboxamide] | ≤ 40 | ++ (Ki(cathepsin L)/Ki(calpain) ratio of ≧50) | + (10≦Ki(cathepsin B)/Ki(calpain)<30) | + (10≦Ki(cathepsin K)/Ki(calpain)<30) | ++ (Ki(cathepsin S)/Ki(calpain) ratio of ≧100) |
| NC(=O)C(=O)C(Cc1ccccc1)NC(=O)c1cccnc1-n1cc2c(n1)-c1ccccc1SC2 (stereo not shown) [Example 173, N-[3-Amino-2,3-dioxo-1-(phenylmethyl)propyl]-2-thiochromeno[4,3-c]pyrazol-2(4H)-ylpyridine-3-carboxamide] | ≤ 40 | ++ (Ki(cathepsin L)/Ki(calpain) ratio of ≧50) | + (10≦Ki(cathepsin B)/Ki(calpain)<30) | + (10≦Ki(cathepsin K)/Ki(calpain)<30) | ++ (Ki(cathepsin S)/Ki(calpain) ratio of ≧100) |
| NC(=O)C(=O)C(Cc1ccccc1)NC(=O)c1cccnc1-n1cc2c(n1)-c1ccccc1S(=O)(=O)C2 (stereo not shown) [Example 174, N-[3-Amino-2,3-dioxo-1-(phenylmethyl)propyl]-2-(5,5-dioxidothiochromeno[4,3-c]pyrazol-2(4H)-yl)pyridine-3-carboxamide] | ≤ 40 | ++ (Ki(cathepsin L)/Ki(calpain) ratio of ≧50) | + (10≦Ki(cathepsin B)/Ki(calpain)<30) | + (10≦Ki(cathepsin K)/Ki(calpain)<30) | ++ (Ki(cathepsin S)/Ki(calpain) ratio of ≧100) |
| NC(=O)C(=O)C(Cc1ccccc1)NC(=O)c1cccnc1-n1cc2c(n1)-c1cccc(Cl)c1OC2 (stereo not shown) [Example 175, N-[3-Amino-2,3-dioxo-1-(phenylmethyl)propyl]-2-(6-chlorochromeno[4,3-c]pyrazol-2(4H)-yl)pyridine-3-carboxamide] | ≤ 40 | ++ (Ki(cathepsin L)/Ki(calpain) ratio of ≧50) | ++ (Ki(cathepsin B)/Ki(calpain) ratio of ≧30) | ++ (Ki(cathepsin K)/Ki(calpain) ratio of ≧30) | ++ (Ki(cathepsin S)/Ki(calpain) ratio of ≧100) |
| COc1ccc2c(c1)-c1nn(-c3ncccc3C(=O)NC(Cc3ccccc3)C(=O)C(N)=O)cc1CO2 (stereo not shown) [Example 183, N-[3-Aamino-2,3-dioxo-1-(phenylmethyl)propyl]-2-[8-(methyloxy)chromeno[4,3-c]pyrazol-2(4H)-yl]pyridine-3-carboxamide] | ≤ 40 | ++ (Ki(cathepsin L)/Ki(calpain) ratio of ≧50) | + (10≦Ki(cathepsin B)/Ki(calpain)<30) | + (10≦Ki(cathepsin K)/Ki(calpain)<30) | ++ (Ki(cathepsin S)/Ki(calpain) ratio of ≧100) |
